Experimental data taken from patent publication EP4775575A1, “COMPOUND USED AS CDK4 KINASE INHIBITOR AND USE THEREOF” (TYK Medicines, Inc., priority 2023, dated 2025).

Columns and labels:
CDK4/CycD1 = CDK4/CycD1 (Homo sapiens, UniProt P11802); experiment: Kinase activity assay (MSA, EZ Reader) against CDK4
CDK6/CyclinD3 = target: T1, CDK6/CyclinD3 (Homo sapiens, UniProt Q00534); experiment: Kinase activity assay (MSA, EZ Reader) against CDK6; format: biochemical; conditions: CDK6/CyclinD3 5.00 nM, ATP 350 µM, FL-Peptide34, 10mM MgCl2
T1 construct: purchased Carna 04-107

[1] = system: human mantle cell lymphoma cells JEKO-1; experiment: Cell anti-proliferation assay (MTT), JEKO-1; format: cell-based; conditions: Homo sapiens, 120 h, JEKO-1 cells, incubated for 5 days
Summary of the method: (§1)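 Cells in DMEM with 10% FBS were seeded at 50,000 cells/mL and grown overnight at 37 °C, 5% CO2, then treated at 9 concentrations (3-fold serial dilution, 0.1% DMSO medium). MTT was added for 3 h, formazan dissolved in acidified isopropanol/NP-40, and absorbance read at 570 nm.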

[2] = Preclinical pharmacokinetic study in rats; format: in vivo, Sprague-Dawley (SD) rats; conditions: male SD rats, oral gavage (p.o.) 10 mg/kg, plasma; for AUC(0-t) / Cmax / Tmax: Sprague-Dawley, rat
Method: Healthy adult Sprague-Dawley (SD) rats, male, 6-8 weeks old, weighing 200-300 g. EDTA-Na2 anticoagulant. Analytical balance, animal weighing scale, magnetic stirrer, refrigerated centrifuge, single-channel manual pipette, etc. About 10 mg of the test sample was precisely weighed, dissolved in a calculated volume of 5% DMSO, followed by addition of 10% solutol HS-15 and 85% normal saline. The mixture was sonicated and vortexed to homogeneity to obtain a solution with a concentration of 1 mg/mL. The solution was freshly prepared before use. Animals were housed in rat cages and fasted overnight (no less than 10 h) before the test, with free access to water. On the day of the test, animals were weighed and marked on the tail. Blank blood samples were collected before administration. The blood was collected via tail vein. • Route of administration: oral gavage (p.o.) • Dose: 10 mg/kg • Dosing volume: 10 mL/kg • Procedure: The rat was held upright with the left hand wearing bite-resistant glove. A 16-gauge gavage needle was inserted through the mouth into the esophagus. The needle was advanced gently without obvious resistance, and the drug solution was injected into the stomach. Whole blood (0.1 mL) were collected from each test animal before administration and at 0.5 […], and 24 h after administration into EDTA-Na2 anticoagulant tubes. The tubes were inverted 3-4 times for mixing, then centrifuged at 10,000 g for 5 min at 4 °C to separate plasma. Plasma samples were stored at -80 °C until analysis. Blood was collected via tail vein. […] The mixture was vortexed for 2 min and centrifuged at 10,000 g for 10 min at 4 °C. Processing of unknown plasma samples: 25 μL of drug-containing rat plasma was transferred, followed by addition of 25 μL of methanol and 200 μL of internal standard solution. The mixture was vortexed for 2 min and centrifuged at 10,000 g for 10 min at 4 °C. The supernatant was collected for LC-MS/MS analysis. A quantitative method for the determination of the test compound was established using a Shimadzu liquid chromatography system coupled with Triple Quad^TM 6500+ AB mass spectrometer. The concentration of the parent drug in plasma was determined. The plasma concentration-time curve was plotted, and the main pharmacokinetic parameters were calculated using a non-compartmental model in winnonlin Phoenix software.

[3] = system: Human breast cancer cells MCF-7; experiment: Cell anti-proliferation assay (MTT), MCF-7; format: cell-based; conditions: Homo sapiens, MCF7, 120 h, MCF-7 cells, incubated for 5 days
Summary of the method: as §1

[4] = system: human ovarian cancer cells A2780; experiment: Cell anti-proliferation assay (MTT), A2780; format: cell-based; conditions: Homo sapiens, 120 h, incubated for 5 days
Summary of the method: as §1

T1 sequence (Q00534 whole entry): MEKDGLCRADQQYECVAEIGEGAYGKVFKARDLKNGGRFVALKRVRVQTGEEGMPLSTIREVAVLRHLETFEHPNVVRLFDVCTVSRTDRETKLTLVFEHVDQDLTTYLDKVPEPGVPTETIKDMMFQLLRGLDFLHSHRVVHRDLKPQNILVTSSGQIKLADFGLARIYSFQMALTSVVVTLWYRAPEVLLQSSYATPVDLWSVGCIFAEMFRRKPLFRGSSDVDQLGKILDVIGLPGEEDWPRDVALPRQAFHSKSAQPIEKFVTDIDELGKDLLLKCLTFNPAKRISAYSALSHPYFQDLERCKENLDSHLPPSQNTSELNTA
T1 sequence (P30281 whole entry partner): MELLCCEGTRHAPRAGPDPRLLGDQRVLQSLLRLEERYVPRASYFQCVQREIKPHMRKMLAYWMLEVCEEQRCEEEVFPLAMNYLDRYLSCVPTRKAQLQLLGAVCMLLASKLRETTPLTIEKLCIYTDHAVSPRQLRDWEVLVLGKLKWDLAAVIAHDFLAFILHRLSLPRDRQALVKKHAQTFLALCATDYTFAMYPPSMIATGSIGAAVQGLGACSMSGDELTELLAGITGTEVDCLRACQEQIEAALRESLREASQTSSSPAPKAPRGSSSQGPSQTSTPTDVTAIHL
Chain of CDK4/CycD1 (P11802 whole entry): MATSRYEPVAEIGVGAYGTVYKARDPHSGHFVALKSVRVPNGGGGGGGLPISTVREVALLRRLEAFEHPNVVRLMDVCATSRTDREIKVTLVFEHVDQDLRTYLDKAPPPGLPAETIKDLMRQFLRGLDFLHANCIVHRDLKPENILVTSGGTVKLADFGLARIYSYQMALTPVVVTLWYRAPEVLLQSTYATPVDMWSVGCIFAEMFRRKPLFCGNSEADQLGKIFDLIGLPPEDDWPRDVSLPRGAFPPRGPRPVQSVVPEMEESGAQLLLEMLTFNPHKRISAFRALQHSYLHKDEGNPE

Structure (SMILES)	IC50 (CDK4/CycD1) [nM]	IC50 (CDK6/CyclinD3) [nM]	IC50 [1] [nM]	AUC(0-t) [2] [ng·h/mL]	Cmax [2] [ng/mL]	Tmax [2] [h]	HL_ [2] [h]	IC50 [3] [nM]	IC50 [4] [nM]
C[C@H]1CCN(C2CC2)c2nc3c(F)cc(-c4nc(N[C@@H]5CCOC[C@H]5O)ncc4Cl)cc3n21 [TA-4]	4.4	63.9	≤ 500	16200	4430	1	3.19	≤ 500	≤ 500
C[C@H]1CCN(c2ccccc2)c2nc3c(F)cc(-c4nc(N[C@@H]5CCOC[C@H]5O)ncc4Cl)cc3n21 [TA-33]	3.4	94.2		2170	262	4.67			
CC(C)n1c(N2CCOCC2)nc2c(F)cc(-c3nc(N[C@@H]4CCOC[C@H]4O)ncc3Cl)cc21 [TB-12, (3S,4R)-4-((5-chloro-4-(4-fluoro-1-isopropyl-2-morpholino-1H-benzo[d]imidazol-6-yl)pyrimidin-2-yl)amino)tetrahydro-2H-pyran-3-ol]	6.01	151	≤ 500	4500	677	1.5	3.14	≤ 500	≤ 500
CC(C)n1c(N2CC(O)C2)nc2c(F)cc(-c3nc(N[C@@H]4CCOC[C@H]4O)ncc3Cl)cc21 [TB-14, 1-(6-(5-chloro-2-(((3S,4R)-3-hydroxytetrahydro-2H-pyran-4-yl)amino)pyrimidin-4-yl)-4-fluoro-1-isopropyl-1H-benzo[d]imidazol-2-yl)azetidin-3-ol]	6.37	235	≤ 500					≤ 500	≤ 500
CCN1CCN(Cc2ccc(Nc3ncc(Cl)c(-c4cc(F)c5nc(N(C)C)n(C(C)C)c5c4)n3)nc2)CC1 [TB-16]	6.92	44.6	≤ 500					≤ 500	≤ 500
COc1cc(N2CCNCC2)ccc1Nc1ncc(Cl)c(-c2cc(F)c3nc(N(C)C)n(C(C)C)c3c2)n1 [TB-17, 6-(5-chloro-2-((2-methoxy-4-(piperazin-1-yl)phenyl)amino)pyrimidin-4-yl)-4-fluoro-1-isopropyl-N,N-dimethyl-1H-benzo[d]imidazol-2-amine]	33.8	297	500 to 2000					500 to 2000	500 to 2000
CC(C)n1c(N(C)C)nc2c(F)cc(-c3nc(Nc4ccc(N5CCNCC5)cn4)ncc3Cl)cc21 [TB-18, 6-(5-chloro-2-((5-(piperazin-1-yl)pyridin-2-yl)amino)pyrimidin-4-yl)-4-fluoro-1-isopropyl-N,N-dimethyl-1H-benzo[d]imidazol-2-amine]	2.6	13.7	≤ 500					≤ 500	≤ 500
CC(C)n1c(N2CCOC2=O)nc2c(F)cc(-c3nc(N[C@@H]4CCOC[C@H]4O)ncc3Cl)cc21 [TB-24]	10.1	143	≤ 500	4500	677	1.67	3.14	≤ 500	≤ 500
CC(C)n1c(N2CCCOC2=O)nc2c(F)cc(-c3nc(N[C@@H]4CCOC[C@H]4O)ncc3Cl)cc21 [TB-25]	43.4	> 500	≤ 500					500 to 2000	≤ 500
CC(C)n1c(N2CCOC2=O)nc2c(F)cc(-c3nc(NC4CCN(S(C)(=O)=O)CC4)ncc3Cl)cc21 [TB-26]	18.6	200	≤ 500					≤ 500	≤ 500
CC(C)n1c(N2CCOC2=O)nc2c(F)cc(-c3nc(NC4CCN(S(C)(=O)=O)CC4)ncc3F)cc21 [TB-28]	8.57	154	≤ 500					≤ 500	≤ 500
CC(C)n1c(N2CCOC2=O)nc2c(F)cc(-c3nc(NC4CCN(S(=O)(=O)C(C)C)CC4)ncc3Cl)cc21 [TB-32]	12.3	145	≤ 500					≤ 500	≤ 500
CC(C)n1c(N2CCOC2=O)nc2c(F)cc(-c3nc(NC4CCN(S(=O)(=O)C5CC5)CC4)ncc3Cl)cc21 [TB-33]	8.37	61.7	≤ 500					≤ 500	≤ 500
CC(C)n1c(N2CCOC2=O)nc2c(F)cc(-c3nc(NC4CCN(S(C)(=O)=O)CC4(F)F)ncc3Cl)cc21 (stereo not drawn) [TB-35]	15.5	167	≤ 500					≤ 500	≤ 500
CC(C)n1c(N2CCOC2=O)nc2c(F)cc(-c3nc(Nc4ccc(S(=O)(=O)NCCN(C)C)cc4)ncc3Cl)cc21 [TB-38, 4-((5-chloro-4-(4-fluoro-1-isopropyl-2-(2-oxooxazolidin-3-yl)-1H-benzo[d]imidazol-6-yl)pyrimidin-2-yl)amino)-N-(2-(dimethylamino)ethyl)benzenesulfonamide]	18.5	76.6	≤ 500					≤ 500	≤ 500
CC1CCN(C)c2nc3c(F)cc(-c4nc(NC5CCN(S(C)(=O)=O)CC5)ncc4Cl)cc3n21 (stereo not drawn) [TB-51, 5-chloro-4-(9-fluoro-1,4-dimethyl-1,2,3,4-tetrahydrobenzo[4,5]imidazo[1,2-a]pyrimidin-7-yl)-N-(1-(methylsulfonyl)piperidin-4-yl)pyrimidin-2-amine]	2.23	27.6	≤ 500					≤ 500	≤ 500
CNS(=O)(=O)c1ccc(Nc2ncc(Cl)c(-c3cc(F)c4nc5n(c4c3)C(C)CCN5C)n2)cc1 (stereo not drawn) [TB-53, 4-((5-chloro-4-(9-fluoro-1,4-dimethyl-1,2,3,4-tetrahydrobenzo[4,5]imidazo[1,2-a]pyrimidin-7-yl)pyrimidin-2-yl)amino)-N-methylbenzenesulfonamide]	10.6	56.9	≤ 500					≤ 500	≤ 500
CC(C)n1c(N2CCOC2=O)nc2c(F)cc(-c3nc(Nc4ccc(S(=O)(=O)NCCN(C)C)cc4)nc4[nH]cnc34)cc21 [TB-70]	18.5	76.6	≤ 500					≤ 500	≤ 500
CN1CCCn2c1nc1c(F)cc(-c3nc(Nc4ccc(C#N)cc4)ncc3Cl)cc12 [TB-133, 4-((5-chloro-4-(9-fluoro-1-methyl-1,2,3,4-tetrahydrobenzo[4,5]imidazo[1,2-a]pyrimidin-7-yl)pyrimidin-2-yl)amino)benzonitrile]	17.9	64.8	≤ 500					≤ 500	≤ 500
CC1(C)CSc2nc3c(F)cc(-c4nc(N[C@@H]5CCOC[C@H]5O)ncc4Cl)cc3n2C1 [TB-146]	11.9	60.1	≤ 500					≤ 500	≤ 500
C[C@@H]1C[C@H](C)n2c(nc3c(F)cc(-c4nc(N[C@@H]5CCOC[C@H]5O)ncc4Cl)cc32)N1C [TB-154]	3	75.8	≤ 500					≤ 500	≤ 500
C[C@H]1CCN(CC(C)(C)O)c2nc3c(F)cc(-c4nc(N[C@@H]5CCOC[C@H]5O)ncc4Cl)cc3n21 [TC-7]	3.7	154	≤ 500					≤ 500	≤ 500
C[C@H]1CCN(c2ccc(F)cc2F)c2nc3c(F)cc(-c4nc(N[C@@H]5CCOC[C@H]5O)ncc4Cl)cc3n21 [TC-13]	3.3	74.4	≤ 500					≤ 500	≤ 500
C[C@H]1CCN(c2ccc(C#N)cc2)c2nc3c(F)cc(-c4nc(N[C@@H]5CCOC[C@H]5O)ncc4Cl)cc3n21 [TC-17]	4.5	> 500	≤ 500					≤ 500	≤ 500
